The target in this assay is T1, Kv1.5 channels from humans (Homo sapiens, UniProt P22460).
T1 construct: expressed in transfected cells; host or cells: Xenopus laevis oocytes injected with in vitro synthesized RNA
T1 sequence (P22460 whole entry): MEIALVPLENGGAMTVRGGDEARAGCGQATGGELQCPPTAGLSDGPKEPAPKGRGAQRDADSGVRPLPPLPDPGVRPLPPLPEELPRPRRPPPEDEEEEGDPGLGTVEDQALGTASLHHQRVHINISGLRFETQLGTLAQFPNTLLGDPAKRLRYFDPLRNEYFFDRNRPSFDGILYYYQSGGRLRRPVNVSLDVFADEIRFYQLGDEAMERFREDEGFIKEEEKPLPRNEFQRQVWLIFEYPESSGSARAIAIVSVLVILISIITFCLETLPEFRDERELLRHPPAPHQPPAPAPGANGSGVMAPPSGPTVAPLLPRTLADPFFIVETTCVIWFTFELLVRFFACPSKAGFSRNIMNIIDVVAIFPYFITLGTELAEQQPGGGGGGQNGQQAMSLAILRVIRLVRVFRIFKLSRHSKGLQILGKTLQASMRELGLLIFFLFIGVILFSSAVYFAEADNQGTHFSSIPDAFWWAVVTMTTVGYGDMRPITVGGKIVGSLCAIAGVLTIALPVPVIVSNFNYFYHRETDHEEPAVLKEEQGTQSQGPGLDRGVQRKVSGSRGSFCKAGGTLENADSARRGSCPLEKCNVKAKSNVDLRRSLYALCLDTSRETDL
The assay can be described thus: Kv1.5 currents in Xenopus oocytes, 2-microelectrode voltage clamp. It is filed as cell-based. The settings on record: human Kv1.5 expressed in Xenopus laevis oocytes; voltage jumps to 0 mV and 40 mV, 500 ms; room temperature; inhibition of Kv1.5 control current, Hill equation. Here is the method:
Kv1.5 channels from humans were expressed in Xenopus oocytes. To this end, oocytes from Xenopus laevis were first isolated and defolliculated. RNA coding for Kv1.5 synthesized in vitro was then injected into these oocytes. After a Kv1.5 protein expression for 1-7 days, Kv1.5 currents were measured on the oocytes using the 2-microelectrode voltage clamp technique. The Kv1.5 channels were in this case as a rule activated using voltage jumps to 0 mV and 40 mV lasting 500 ms. The bath was rinsed using a solution of the following composition: NaCl 96 mM, KCl 2 mM, CaCl2 1.8 mM, MgCl2 1 mM, HEPES 5 mM (titrated with NaOH to pH 7.4). These experiments were carried out at room temperature. The following were employed for data acquisition and analysis: Gene clamp amplifier (Axon Instruments, Foster City, USA) and MacLab D/A converter and software (ADInstruments, Castle Hill, Australia). The substances according to the invention were tested by adding them to the bath solution in different concentrations. The effects of the substances were calculated as the percentage inhibition of the Kv1.5 control current which was obtained when no substance was added to the solution. The data were then extrapolated using the Hill equation in order to determine the inhibition concentrations IC50 for the respective substances.
`CC(C)(C)OC(=O)NCc1ccccc1-c1cccc(C(=O)NCc2ccc(F)cc2F)c1` [Example 2] came in with an IC50 of less than 100 µM.
The molecule `CC(C)(C)OC(=O)NCc1ccccc1-c1ccc(Cl)c(C(=O)NCc2ccc(F)cc2F)c1` [Example 3] yielded an IC50 of less than 100 µM.
Then `Cc1ccc(C(=O)NCCC(C)C)cc1-c1ccccc1CNC(=O)OC(C)(C)C` [Example 4], with 6.1 µM; and `CC(C)CCNC(=O)c1cccc(-c2ccccc2CNC(=O)OC(C)(C)C)n1` [Example 5], with 6 µM; and `CC(C)(C)OC(=O)NCc1ccccc1-c1cccc(C(=O)NCc2ccc(F)cc2F)n1` [Example 6], with less than 100 µM.
Molecule `CC(C)CCNC(=O)c1cncc(-c2ccccc2CNC(=O)OC(C)(C)C)c1` [Example 7] registered an IC50 of less than 100 µM.
As to `CC(C)(C)OC(=O)NCc1ccccc1-c1cncc(C(=O)NCc2ccc(F)cc2F)c1` [Example 8], the IC50 was less than 100 µM.
As for `COc1ccc(NC(=O)c2cccc(-c3ccccc3CNC(=O)OC(C)(C)C)n2)cc1` [Example 9], the half-inhibitory concentration (IC50) worked out at 3 µM.
On to `CC(C)C[C@H](NC(=O)c1cccc(-c2ccccc2CNC(=O)OC(C)(C)C)n1)C(N)=O` [Example 10], for which the IC50 is less than 100 µM.
The figure for `CC(C)(C)OC(=O)NCc1ccccc1-c1cccc(C(=O)NCCc2ccccn2)n1` [Example 11] is 10 µM; for `C[C@H](OC(=O)NCc1ccccc1-c1cccc(C(=O)NCCc2ccccn2)n1)c1ccccc1` [Example 12, (S)-1-(Phenylethyl) {2-[6-(2-pyridin-2-ylethylcarbamoyl)pyridin-2-yl]benzyl}carbamate] it is 2.2 µM.
Then `Cc1ccc(C(=O)NCCC(C)C)cc1-c1ccccc1CNC(=O)OCc1ccccc1` [Example 13], with 7 µM; and `CC(C)CCNC(=O)c1cccc(-c2ccccc2CNC(=O)OCc2ccccc2)c1` [Example 14], with less than 100 µM.
As to `O=C(NCc1ccccc1-c1cccc(C(=O)NCc2ccc(F)cc2F)c1)OCc1ccccc1` [Example 15], the IC50 is less than 100 µM.
Then `O=C(NCc1ccccc1-c1cccc(C(=O)NCc2ccc(F)cc2F)n1)OCc1ccccc1` [Example 16], with less than 100 µM; and `CC(C)CCNC(=O)c1cccc(-c2ccccc2CNC(=O)OCc2ccccc2)n1` [Example 17], with less than 100 µM; and `CC(C)C[C@H](NC(=O)c1cccc(-c2ccccc2CNC(=O)O[C@@H](C)c2ccccc2)n1)C(N)=O` [Example 18], with 4.2 µM.
The molecule `COc1ccc(NC(=O)c2cccc(-c3ccccc3CNC(=O)O[C@@H](C)c3ccccc3)n2)cc1` [Example 19] came in with an IC50 of 2 µM.
Then `COc1ccc(CC(=O)NCc2ccccc2-c2cccc(C(=O)Nc3ccc(OC)cc3)n2)cc1` [Example 20, 6-(2-{[2-(4-Methoxyphenyl)acetylamino]methyl}phenyl)pyridine-2-carboxylic acid (4-methoxyphenyl)amide], with less than 100 µM; and `COc1ccc(CC(=O)NCc2ccccc2-c2cccc(C(=O)NCc3ccc(F)cc3F)n2)cc1` [Example 21], with 5.7 µM.
The figure for `COc1ccc(CC(=O)NCc2ccccc2-c2cccc(C(=O)NCCc3ccccn3)n2)cc1` [Example 22] is less than 100 µM.
As for `COc1ccc(CCC(=O)NCc2ccccc2-c2cccc(C(=O)Nc3ccc(OC)cc3)n2)cc1` [Example 23], the IC50 was less than 100 µM.
`CCOc1ccc(C(=O)NCc2ccccc2-c2cccc(C(=O)Nc3ccc(OC)cc3)n2)cc1` [Example 24] gave an IC50 of less than 100 µM.
The figure for `COc1ccc(CC(=O)NCc2ccccc2-c2cncc(C(=O)NCc3ccc(F)cc3F)c2)cc1` [Example 26] is 7.4 µM; for `COc1ccc(CC(=O)NCc2ccccc2-c2cccc(C(=O)NCc3ccc(F)cc3F)c2)cc1` [Example 27] it is 6 µM; for `COc1ccc(CC(=O)NCc2ccccc2-c2cccc(C(=O)NCCC(C)C)c2)cc1` [Example 28] it is 4.2 µM.
The molecule `COc1ccc(CC(=O)NCc2ccccc2-c2cc(C(=O)NCCC(C)C)ccc2C)cc1` [Example 29] returned an IC50 of 4 µM.
Molecule `COc1ccc(CCC(=O)NCc2ccccc2-c2cc(C(=O)NCCC(C)C)ccc2C)cc1` [Example 30] registered an IC50 of 3.1 µM.

The values above are taken from patent publication US6605625B2, “Ortho, meta-substituted bisaryl compounds, processes for their preparation, their use as medicaments, and pharmaceutical preparations comprising them” (Aventis Pharma Deutschland GmbH, priority 2000, dated 2003).
